According to paper doi:10.1101/2022.12.25.521909v1 (biorxiv, 2022):

Molecular target: T1, human ABCC4 (ABCC4/MRP4) (Homo sapiens, UniProt O15439)
T1 sequence (O15439 1-1325): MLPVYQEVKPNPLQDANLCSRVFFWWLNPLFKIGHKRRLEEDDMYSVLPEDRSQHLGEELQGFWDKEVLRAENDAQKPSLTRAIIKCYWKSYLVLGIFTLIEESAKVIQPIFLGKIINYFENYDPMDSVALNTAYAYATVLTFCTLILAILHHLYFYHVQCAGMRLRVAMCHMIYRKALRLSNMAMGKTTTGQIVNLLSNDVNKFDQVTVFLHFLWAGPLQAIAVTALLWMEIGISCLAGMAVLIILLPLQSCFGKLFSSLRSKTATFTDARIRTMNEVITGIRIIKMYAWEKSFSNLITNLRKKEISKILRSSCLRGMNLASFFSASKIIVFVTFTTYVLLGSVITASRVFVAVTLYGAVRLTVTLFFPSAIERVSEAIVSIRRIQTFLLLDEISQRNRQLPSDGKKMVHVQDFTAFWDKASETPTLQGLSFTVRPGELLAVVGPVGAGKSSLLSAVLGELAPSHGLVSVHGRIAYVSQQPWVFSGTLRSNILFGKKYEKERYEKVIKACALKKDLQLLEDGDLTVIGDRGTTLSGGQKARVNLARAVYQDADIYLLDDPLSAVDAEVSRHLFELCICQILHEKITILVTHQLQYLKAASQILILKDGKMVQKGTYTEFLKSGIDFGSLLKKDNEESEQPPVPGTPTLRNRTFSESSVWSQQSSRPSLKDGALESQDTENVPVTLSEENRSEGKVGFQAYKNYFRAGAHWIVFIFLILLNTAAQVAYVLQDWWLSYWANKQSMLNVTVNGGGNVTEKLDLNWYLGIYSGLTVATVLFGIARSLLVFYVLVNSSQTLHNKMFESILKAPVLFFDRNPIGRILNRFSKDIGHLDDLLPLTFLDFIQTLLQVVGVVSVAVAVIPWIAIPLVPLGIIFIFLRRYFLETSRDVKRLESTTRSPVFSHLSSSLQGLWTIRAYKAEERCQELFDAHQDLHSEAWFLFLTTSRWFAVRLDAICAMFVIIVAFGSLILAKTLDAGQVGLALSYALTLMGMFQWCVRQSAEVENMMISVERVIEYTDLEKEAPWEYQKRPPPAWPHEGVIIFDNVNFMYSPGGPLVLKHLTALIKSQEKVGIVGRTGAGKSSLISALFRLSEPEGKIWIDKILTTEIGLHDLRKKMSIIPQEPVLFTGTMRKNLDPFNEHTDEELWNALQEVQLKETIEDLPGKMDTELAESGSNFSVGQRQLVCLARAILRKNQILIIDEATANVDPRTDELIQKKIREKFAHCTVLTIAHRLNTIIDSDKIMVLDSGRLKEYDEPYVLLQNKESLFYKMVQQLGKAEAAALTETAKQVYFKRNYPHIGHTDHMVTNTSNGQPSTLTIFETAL
Assay: inhibition of basal ATPase activity, ABCC4 in lipid nanodiscs, logistic fit
Assay type: biochemical

OCCN(CCO)c1nc(N2CCCCC2)c2nc(N(CCO)CCO)nc(N3CCCCC3)c2n1 [dipyridamole]
IC50: ~2100 nM
